{
  "source": "ChEMBL document CHEMBL6120988",
  "about": "“Mitochondria-targeting artesunate-rhein conjugates: Linker-modulated cell-permeability, heme-affinity and anticancer activity” (Eur J Med Chem, 2025)",
  "key": {"[1]": {"assay": "Half life in mouse at 100 mg/kg, po", "format": "ADME, organism-based", "details": "in vivo"}, "4T1 [2]": {"system": "4T1", "assay": "Induction of repolarization of M2 macrophages into M1 macrophages in mouse 4T1 cells assessed as ratio of M2 to M1 macrophages", "format": "functional, cell-based"}, "[3]": {"assay": "Drug uptake in mouse 4T1 cells after 3 hrs by flow cytometry analysis", "format": "ADME, cell-based", "details": "4t1, 3 h"}, "4T1 [4]": {"system": "4T1", "assay": "Induction of ROS production in mouse 4T1 cells assessed as increase in intracellular ROS level by […] staining based flow cytometry (reference value: 7.8%)", "format": "functional"}, "[5]": {"assay": "AUC(0 to t) in mouse at 100 mg/kg, po", "format": "ADME, organism-based", "details": "in vivo"}, "4T1 [6]": {"system": "4T1", "assay": "Antitumor activity against mouse 4T1 cells allografted in female BALB/c mouse assessed as increase in infiltration of CD8+IFN-gamma+ lymphocytes in tumors at 100 mg/kg, po administrated every day for 15 times and measured after 22 days by flow cytometry (reference value: 5.99%)", "format": "functional", "details": "time 22 day"}, "[7]": {"assay": "Toxicity in female BALB/c mouse allografted with mouse 4T1 cells assessed as survival rate at 10 mg/kg, iv administrated every 3 day for 5 times and measured after 22 days relative to control", "format": "organism-based", "details": "in vivo, 528 h, time 22 day"}, "4T1 [8]": {"system": "4T1", "assay": "Antitumor activity against mouse 4T1 cells allografted in female BALB/c mouse assessed as increase in apoptotic cells at 10 mg/kg, iv administrated every 3 day for 5 times and measured after 22 days by TUNEL staining based assay", "format": "functional, organism-based", "details": "time 22.0 day"}, "4T1 [9]": {"system": "4T1", "assay": "Antitumor activity against mouse 4T1 cells allografted in female BALB/c mouse assessed as increase in infiltration of CD44+CD62L- lymphocytes in tumors at 100 mg/kg, po administrated every day for 15 times and measured after 22 days by flow cytometry (reference value: 5.5%)", "format": "functional", "details": "time 22 day"}, "4T1 [10]": {"system": "4T1", "assay": "Antitumor activity against mouse 4T1 cells allografted in female BALB/c mouse assessed as disappearance of cancer cells at 10 mg/kg, iv administrated every 3 days for 5 times and measured after 22 days by H and E staining based analysis", "format": "functional, organism-based", "details": "time 22.0 day"}, "[11]": {"assay": "Toxicity against female BALB/c mouse allografted with mouse 4T1 cells assessed as mean corpuscular volume at 10 mg/kg, iv administrated every 3 days for 5 times and measured after 22 days", "format": "organism-based", "details": "in vivo, 528 h, time 22 day"}, "[12]": {"assay": "MRT (0 to infinity) in mouse at 100 mg/kg, po", "format": "ADME, organism-based", "details": "in vivo"}, "A549": {"system": "A549", "assay": "Cytotoxicity against human A549 cells assessed as cell viability by MTT assay", "format": "functional, cell-based"}, "4T1 [13]": {"system": "4T1", "assay": "Antitumor activity against mouse 4T1 cells allografted in female BALB/c mouse assessed as increase in nuclear shrinkage at 100 mg/kg, po administrated every day for 15 times and measured for 22 days", "format": "functional, organism-based", "details": "time 22.0 day"}, "4T1 [14]": {"system": "4T1", "assay": "Antitumor activity against mouse 4T1 cells allografted in female BALB/c mouse assessed as reduction in tumor tissue volume at 100 mg/kg, po administrated every day for 15 times and measured after 22 days relative to control", "format": "functional, organism-based", "details": "time 22.0 day"}, "4T1 [15]": {"system": "4T1", "assay": "Induction of immunogenic cell death in mouse 4T1 cells assessed as increase in CRT exposure on cell surface by measuring increase in red fluorescence by CLSM analysis (reference value: 2.55%)", "format": "functional"}, "4T1 [16]": {"system": "4T1", "assay": "Induction of immunogenic cell death in mouse 4T1 cells allografted in female BALB/c mouse assessed as increase in CD80+ CD86+CD11c+ cells DC maturation at 100 mg/kg, po administrated every day for 15 times and measured after 22 days by flow cytometry (reference value: 7.20 %)", "format": "functional", "details": "time 22 day"}, "4T1 [17]": {"system": "4T1", "assay": "Antitumor activity against mouse 4T1 cells allografted in female BALB/c mouse assessed as reduction in tumor tissue weight at 10 mg/kg, iv administrated every 3 day for 5 times and measured after for 22 days", "format": "functional, organism-based", "details": "time 22.0 day"}, "4T1 [18]": {"system": "4T1", "assay": "Immunostimulatory activity in mouse 4T1 cells implanted in female BALB/c mouse assessed as increase in immunostimulatory CD86+ expression", "format": "functional, cell-based"}, "4T1 [19]": {"system": "4T1", "assay": "Induction of mitochondrial dysfunction in mouse 4T1 cells assessed as ATP production", "format": "functional, cell-based"}, "[20]": {"assay": "Toxicity against female BALB/c mouse allografted with mouse 4T1 cells assessed as hemoglobin at 10 mg/kg, iv administrated every 3 days for 5 times and measured after 22 days", "format": "organism-based", "details": "in vivo, 528 h, time 22 day"}, "4T1 [21]": {"system": "4T1", "assay": "Induction of apoptosis in mouse 4T1 cells assessed as necrotic cells by Annexin V-FITC and PI staining based flow cytometry analysis (reference value: 0.085 %)", "format": "functional"}, "[22]": {"assay": "Toxicity in female BALB/c mouse allografted with mouse 4T1 cells assessed as change in body weight at 10 mg/kg, iv administrated every 3 day for 5 times and measured every 2 days for 22 days relative to control", "format": "organism-based", "details": "in vivo, 528 h, time 22 day"}, "4T1 [23]": {"system": "4T1", "assay": "Induction of immunogenic cell death in mouse 4T1 cells allografted in female BALB/c mouse assessed as increase in CD80+ CD86+CD11c+ cells DC maturation at 10 mg/kg, iv administrated every 3 days for 5 times and measured after 22 days by flow cytometry (reference value: 7.77 %)", "format": "functional", "details": "time 22 day"}, "[24]": {"assay": "Oral bioavailability in mouse at 100 mg/kg", "format": "ADME, organism-based", "details": "in vivo"}, "4T1 [25]": {"system": "4T1", "assay": "Antitumor activity against mouse 4T1 cells allografted in female BALB/c mouse assessed as increase in nuclear shrinkage at 10 mg/kg, iv administrated every 3 day for 5 times and measured after 22 days", "format": "functional, organism-based", "details": "time 22.0 day"}, "Mitochondrial membrane": {"system": "Mitochondrial membrane", "assay": "Induction of mitochondrial membrane potential loss in mouse 4T1 cells assessed as increase in green fluorescence by JC-1 staining based flow cytometric analysis (reference value: 7.4 %)", "format": "cell membranes"}, "[26]": {"assay": "Toxicity against female BALB/c mouse allografted with mouse 4T1 cells assessed as effect on red blood cells at 10 mg/kg, iv administrated every 3 days for 5 times and measured after 22 days", "format": "organism-based", "details": "in vivo, 528 h, time 22 day"}, "4T1 [27]": {"system": "4T1", "assay": "Antitumor activity against mouse 4T1 cells allografted in female BALB/c mouse assessed as disappearance of cancer cells at 100 mg/kg, po administrated every day for 15 times and measured after 22 days by H and E staining based analysis", "format": "functional, organism-based", "details": "time 22.0 day"}, "[28]": {"assay": "Drug localization in mitochondria of mouse 4T1 cells assessed as fluorescence intensity measured using pearson co-efficient incubated for 10 hrs by mito-tracker red fluorescent dye based confocal laser scanning microscopic analysis", "format": "ADME", "details": "4t1, 10 h"}, "4T1 [29]": {"system": "4T1", "assay": "Antitumor activity against mouse 4T1 cells allografted in female BALB/c mouse assessed as inhibition of cell proliferation at 100 mg/kg, po administrated every day for 15 times and measured after 22 days by PCNA assay", "format": "functional, organism-based", "details": "time 22.0 day"}, "[30]": {"assay": "Tmax in mouse iv dosed mouse", "format": "ADME, organism-based", "details": "in vivo"}, "4T1 [31]": {"system": "4T1", "assay": "Antitumor activity against mouse 4T1 cells allografted in female BALB/c mouse assessed as increase in infiltration of CD44+CD62L- lymphocytes in tumors at 10 mg/kg, iv administrated every day for 15 times and measured after 22 days by flow cytometry (reference value: 5.17%)", "format": "functional", "details": "time 22 day"}, "4T1 [32]": {"system": "4T1", "assay": "Cytotoxicty against mouse 4T1 cells assessed as cell death by measuring red staining by calcein/PI staining based live/dead staining analysis", "format": "functional"}, "[33]": {"assay": "Half life in mouse iv dosed mouse", "format": "ADME, organism-based", "details": "in vivo"}, "[34]": {"assay": "AUC(0 to t) in mouse iv dosed mouse", "format": "ADME, organism-based", "details": "in vivo, dose 10 mg/kg, time 3 day"}, "U-87 MG": {"system": "U-87 MG", "assay": "Cytotoxicity against human U87 cells assessed as cell viability by MTT assay", "format": "functional, cell-based, U-87MG ATCC"}, "4T1 [35]": {"system": "4T1", "assay": "Induction of immunogenic cell death in mouse 4T1 cells assessed as increase in ATP release by measuring increase in red fluorescence by CLSM analysis relative to R/A group", "format": "functional, cell-based"}},
  "note": "Activity calls are given as the source filed them. The rule behind the calls is not given here.",
  "data": [
    {"compound": "C[C@H]1[C@H](OC(=O)CCC(=O)OCCCCOC(=O)c2cc(O)c3c(c2)C(=O)c2cccc(O)c2C3=O)O[C@@H]2O[C@@]3(C)CC[C@H]4[C@H](C)CC[C@@H]1[C@@]24OO3", "values": [
      {"measurement": "half-life", "setting": "[1]", "value": 5.15, "unit": "h"},
      {"measurement": "Activity", "setting": "4T1 [2]", "value": "Active; Compound Triggers Repolarization By Reversing The Ratio Of M2 To M1 Macrophages"},
      {"measurement": "Activity", "setting": "[3]", "value": "Active"},
      {"measurement": "Activity", "setting": "4T1 [4]", "value": 42.5, "unit": "%"},
      {"measurement": "AUC(0-t)", "setting": "[5]", "value": 18200, "unit": "ng·h/mL"},
      {"measurement": "Activity", "setting": "4T1 [6]", "value": 13.3, "unit": "%"},
      {"measurement": "Survival", "setting": "[7]", "value": "<= 39 day"},
      {"measurement": "Activity", "setting": "4T1 [8]", "value": "Active"},
      {"measurement": "Activity", "setting": "4T1 [9]", "value": 17.2, "unit": "%"},
      {"measurement": "Activity", "setting": "4T1 [10]", "value": "Active"},
      {"measurement": "Activity", "setting": "[11]", "value": "Non-toxic"},
      {"measurement": "MRT inf", "setting": "[12]", "value": 4.95, "unit": "h"},
      {"measurement": "IC50", "setting": "A549", "value": 2790, "unit": "nM"},
      {"measurement": "Activity", "setting": "4T1 [13]", "value": "Active"},
      {"measurement": "Activity", "setting": "4T1 [14]", "value": "Active; Tumor Lighter Weight Than Pbs Treatment"},
      {"measurement": "Activity", "setting": "4T1 [15]", "value": "Active"},
      {"measurement": "Activity", "setting": "4T1 [15]; record 2", "value": 32.82, "unit": "%"},
      {"measurement": "Activity", "setting": "4T1 [16]", "value": 17.4, "unit": "%"},
      {"measurement": "Activity", "setting": "4T1 [17]", "value": "Active; Tumor Lighter Weight Than Pbs Treatment"},
      {"measurement": "Activity", "setting": "4T1 [18]", "value": "Active"},
      {"measurement": "Activity", "setting": "4T1 [19]", "value": "Active"},
      {"measurement": "Activity", "setting": "[20]", "value": "Non-toxic"},
      {"measurement": "Activity", "setting": "4T1 [21]", "value": 0.27, "unit": "%"},
      {"measurement": "Activity", "setting": "[22]", "value": "Non-toxic"},
      {"measurement": "Activity", "setting": "4T1 [23]", "value": 20, "unit": "%"},
      {"measurement": "bioavailability", "setting": "[24]", "value": 15.8, "unit": "%"},
      {"measurement": "Activity", "setting": "4T1 [25]", "value": "Active"},
      {"measurement": "Activity", "setting": "Mitochondrial membrane", "value": 45.6, "unit": "%"},
      {"measurement": "Activity", "setting": "[26]", "value": "Non-toxic"},
      {"measurement": "Activity", "setting": "4T1 [27]", "value": "Active"},
      {"measurement": "Flu intensity", "setting": "[28]", "value": 0.96},
      {"measurement": "Activity", "setting": "4T1 [29]", "value": "Active"},
      {"measurement": "Tmax", "setting": "[30]", "value": 0.17, "unit": "h"},
      {"measurement": "Activity", "setting": "4T1 [31]", "value": 14.4, "unit": "%"},
      {"measurement": "Activity", "setting": "4T1 [32]", "value": "Active"},
      {"measurement": "half-life", "setting": "[33]", "value": 7.01, "unit": "h"},
      {"measurement": "AUC(0-t) at 72 h", "setting": "[34]", "value": 11500, "unit": "ng·h/mL"},
      {"measurement": "IC50", "setting": "U-87 MG", "value": 2140, "unit": "nM"},
      {"measurement": "Activity", "setting": "4T1 [35]", "value": "Active"}
    ]}
  ]
}
